Measurements as given in patent US8148362B2, “Compound having heterocyclic ring” (Research Foundation Itsuu Laboratory, priority 2006, dated 2012).

Legend:
[1] = system: E. faecalis ATCC 29212; test: MIC by CLSI standard method (Test Example 1); type: cell-based; conditions: Enterococcus faecalis, ATCC29212, cation-adjusted Mueller Hinton Broth, about 5×10^5 CFU/mL
Method: (§1) Minimal inhibitory concentration (MIC: μg/ml) against different strains of bacteria was assayed according to the standard method recommended by CLSI (clinical and laboratory standards institute). Samples were prepared from test compound solution in DMSO (1280 μg/mL) by two fold (serial) dilution with DMSO. The sample was added to bacteria suspension at the concentration of 5%, and MIC was determined. Mueller Hinton Broth, which has been adjusted for cation concentration, was used for culture media in this test. The inoculation concentration was about 5×10^5 CFU/mL.

[2] = system: E. faecalis SR7914; test: MIC by CLSI standard method (Test Example 1); type: cell-based; conditions: Enterococcus faecalis, cation-adjusted Mueller Hinton Broth, about 5×10^5 CFU/mL
Method: as §1

[3] = system: E. faecium SR7917; test: MIC by CLSI standard method (Test Example 1); type: cell-based; conditions: Enterococcus faecium, cation-adjusted Mueller Hinton Broth, about 5×10^5 CFU/mL
Method: as §1

[4] = system: S. aureus ATCC 700787; test: MIC by CLSI standard method (Test Example 1); type: cell-based; conditions: Staphylococcus aureus, ATCC700787, cation-adjusted Mueller Hinton Broth, about 5×10^5 CFU/mL
Method: as §1

[5] = system: S. aureus FDA 209P; test: MIC by CLSI standard method (Test Example 1); type: cell-based; conditions: Staphylococcus aureus, FDA209P, cation-adjusted Mueller Hinton Broth, about 5×10^5 CFU/mL
Method: as §1

[6] = system: S. aureus smith; test: MIC by CLSI standard method (Test Example 1); type: cell-based; conditions: Staphylococcus aureus, cation-adjusted Mueller Hinton Broth, about 5×10^5 CFU/mL
Method: as §1

[7] = system: E. faecalis ATCC 29212; test: MIC of quinolone compounds (Test Example 2); type: cell-based; conditions: Enterococcus faecalis, ATCC29212, procedure of Test Example 1
Method: as §1
(§2) The quinolone compounds of the invention were tested for antimicrobial activity according to the procedure in Test Example 1.

[8] = system: E. faecalis SR7914; test: MIC of quinolone compounds (Test Example 2); type: cell-based; conditions: Enterococcus faecalis, procedure of Test Example 1
Method: as §1, §2

[9] = system: S. aureus FDA 209P; test: MIC of quinolone compounds (Test Example 2); type: cell-based; conditions: Staphylococcus aureus, FDA209P, procedure of Test Example 1
Method: as §1, §2

[10] = system: S. aureus SR3637; test: MIC of quinolone compounds (Test Example 2); type: cell-based; conditions: Staphylococcus aureus, procedure of Test Example 1
Method: as §1, §2

MIC [1] [µg/mL] | MIC [2] [µg/mL] | MIC [3] [µg/mL] | MIC [4] [µg/mL] | MIC [5] [µg/mL] | MIC [6] [µg/mL] | MIC [7] [µg/mL] | MIC [8] [µg/mL] | MIC [9] [µg/mL] | MIC [10] [µg/mL] | melting point [°C] | Structure (SMILES)
≤ 1 | ≤ 1 | ≤ 1 | ≤ 1 | ≤ 1 | ≤ 1 | – | – | – | – | – | O=C(NC[C@H]1CN(c2cc(F)c(N3CCNN(C(=O)Nc4nccs4)CC3)c(F)c2)C(=O)O1)C(F)F [Example 84]
≤ 1 | ≤ 1 | ≤ 1 | ≤ 1 | ≤ 1 | ≤ 1 | – | – | – | – | – | CC(=O)NC[C@H]1CN(c2cc(F)c(N3CCn4c(=O)c5cccnc5n4CC3)c(F)c2)C(=O)O1 [Example 81]
– | – | – | – | – | – | ≤ 1 | ≤ 1 | ≤ 1 | ≤ 1 | 222 to 224 | COc1c(N2CCNOCC2)c(F)cc2c(=O)c(C(=O)O)cn(C3CC3)c12 [Compound (71)]
≤ 1 | ≤ 1 | ≤ 1 | ≤ 1 | ≤ 1 | ≤ 1 | – | – | – | – | – | CC(=O)NC[C@H]1CN(c2cc(F)c(N3CCNN(C(=O)Nc4ccncc4)CC3)c(F)c2)C(=O)O1 [Example 85]
≤ 1 | ≤ 1 | ≤ 1 | ≤ 1 | ≤ 1 | ≤ 1 | – | – | – | – | – | CC(=O)NC[C@H]1CN(c2cc(F)c(N3CCNN(C(=O)Nc4nccs4)CC3)c(F)c2)C(=O)O1 [Example 83]
≤ 1 | ≤ 1 | ≤ 1 | ≤ 1 | ≤ 1 | ≤ 1 | – | – | – | – | – | CC(=O)NC[C@H]1CN(c2cc(F)c(N3CCNN(C(=O)CO)CC3)c(F)c2)C(=O)O1 [Example 91]
≤ 1 | ≤ 1 | ≤ 1 | ≤ 1 | ≤ 1 | ≤ 1 | – | – | – | – | – | O=C(NC[C@H]1CN(c2cc(F)c(N3CCn4c(=O)c5cccnc5n4CC3)c(F)c2)C(=O)O1)C(F)F [Example 82]
≤ 1 | ≤ 1 | ≤ 1 | ≤ 1 | ≤ 1 | ≤ 1 | – | – | – | – | – | O=C(NC[C@H]1CN(c2cc(F)c(N3CCNN(C(=O)Nc4ccncc4)CC3)c(F)c2)C(=O)O1)C(F)F [Example 86]
